Measurements reported in patent publication US12391825B2, “Thermoplastic polymer composition for micro 3D printing and uses thereof” (priority 2020, dated 2025).

Tested on: cardiac tissues
Settings: compared with cardiac tissue without compound (baseline)
Description: Human iPSC cardiomyocytes (CMs) were differentiated from hiPSC line BJ1D by using monolayer differentiation protocols (Lian, et al. 2013; Yang, et al. 2008). The disassociation of cardiomyocytes into single cells was performed at day 21 of stem cell differentiation, using previous methods (Yang, et al. 2008). The disassociated cells and cardiac fibroblast (Lonza, NHCF-V) were mixed to reach a cell number ratio of 10:1. The resultant cells were remixed in a collagen hydrogel at a cell number of 5.5×10^7 cells/mL. […]
Cardiac cultured in a multiwell plate was placed in a chamber (37° C., 5% CO2) of fluorescent microscope (Olympus Corporation). ⅓rd of the media was extracted from one well of the multiwell-plate device. […] After 10-15 min, videos in the green and red channel were recorded. The force and Ca^2+ transients were measured under electrical stimulation at 1 Hz. […] Ca^2+ transients were recorded under fluorescent microscope using a green-light channel (λex490 nm/λem525 nm). The ratio of peak fluorescence to baseline fluorescence intensity was measured the relative Ca^2+ change in the tissues by Image J software (NIH) as described previously (Zhao, et al. 2019). […]
With built-in sensors and electrodes, the contractile force of tissues can be measured in situ. […]

CCN(CC)CC(=O)Nc1c(C)cccc1C [lidocaine] was tested, and the “electrical excitability of a cardiac tissue” value was “inhibited”.
